Literature values, collected in US20090258897A1, “Substituted benzimidazoles” (Auspex Pharmaceuticals, Inc., priority 2008, published 2009).

Target: T1, gastric H^+, K^+-ATPase (Homo sapiens, UniProt P20648)
T1 construct: host or cells: healthy volunteers (in vivo, endogenous gastric enzyme)

[1] = healthy volunteers, even after stoppage of the drug

T1 sequence (P20648 whole entry): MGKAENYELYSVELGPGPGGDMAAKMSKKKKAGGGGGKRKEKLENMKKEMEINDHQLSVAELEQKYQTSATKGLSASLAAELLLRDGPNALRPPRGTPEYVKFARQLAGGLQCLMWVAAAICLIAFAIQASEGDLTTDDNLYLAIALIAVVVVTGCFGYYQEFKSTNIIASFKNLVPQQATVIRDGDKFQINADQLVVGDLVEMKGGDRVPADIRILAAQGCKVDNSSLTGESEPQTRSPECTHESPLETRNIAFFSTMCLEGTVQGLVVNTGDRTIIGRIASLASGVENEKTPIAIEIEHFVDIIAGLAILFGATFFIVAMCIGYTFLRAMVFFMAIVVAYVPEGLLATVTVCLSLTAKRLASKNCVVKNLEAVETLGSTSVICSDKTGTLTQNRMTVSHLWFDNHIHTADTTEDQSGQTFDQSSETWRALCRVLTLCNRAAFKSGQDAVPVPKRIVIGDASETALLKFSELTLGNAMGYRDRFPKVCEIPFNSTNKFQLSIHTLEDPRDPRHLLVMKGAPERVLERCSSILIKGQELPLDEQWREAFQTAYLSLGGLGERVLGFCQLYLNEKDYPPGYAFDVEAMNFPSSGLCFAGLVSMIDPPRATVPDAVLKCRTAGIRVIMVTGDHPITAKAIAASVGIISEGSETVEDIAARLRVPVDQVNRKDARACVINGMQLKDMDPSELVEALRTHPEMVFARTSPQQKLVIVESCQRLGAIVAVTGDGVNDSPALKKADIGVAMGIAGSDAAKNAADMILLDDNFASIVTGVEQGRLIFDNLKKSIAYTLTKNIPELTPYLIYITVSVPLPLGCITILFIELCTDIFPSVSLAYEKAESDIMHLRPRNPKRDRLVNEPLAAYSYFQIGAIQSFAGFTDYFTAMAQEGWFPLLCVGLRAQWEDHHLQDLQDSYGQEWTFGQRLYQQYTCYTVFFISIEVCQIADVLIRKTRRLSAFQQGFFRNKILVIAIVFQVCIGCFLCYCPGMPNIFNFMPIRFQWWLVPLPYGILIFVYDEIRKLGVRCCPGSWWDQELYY
T1 sequence (P51164 whole entry partner): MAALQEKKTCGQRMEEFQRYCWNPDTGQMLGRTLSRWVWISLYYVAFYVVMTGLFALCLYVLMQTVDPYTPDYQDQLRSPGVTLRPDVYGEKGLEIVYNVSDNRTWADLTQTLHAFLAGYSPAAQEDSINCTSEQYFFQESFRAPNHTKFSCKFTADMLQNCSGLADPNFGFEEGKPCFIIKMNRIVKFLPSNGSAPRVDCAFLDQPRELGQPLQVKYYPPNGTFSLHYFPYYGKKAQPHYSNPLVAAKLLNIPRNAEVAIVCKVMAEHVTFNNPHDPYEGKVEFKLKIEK

COc1ccc2[nH]c([S+]([O-])Cc3ncc(C)c(OC)c3C)nc2n1 (stereo not drawn) [tenatoprazole, 5-methoxy-2-(4-methoxy-3,5-dimethyl-pyridin-2-ylmethane-sulfinyl)-1H-imidazo[4,5-b]pyridine]
potency compared to other proton pump inhibitors (PPIs) such as esomeprazole (clinical trials): improved potency | duration of acid suppression as compared with other PPIs [1]: prolonged duration of acid suppression | nocturnal acid breakthrough as compared with other PPIs [1]: shorter nocturnal acid breakthrough
